Data published in ChEMBL document CHEMBL5729772, “MYST family histone acetyltransferase inhibitors” (2023).

Columns and labels:
[1] = biological target: Histone acetyltransferase KAT6A (Homo sapiens, UniProt Q92794); assay: KAT-6A Enzyme Assay: KAT-6A. Enzyme assay buffer was 50 mM Tris pH 8.0, 0.002% Tween20, 0.005% bovine skin gelatin, and 1 mM dithiothreitol (DTT). For determination of IC50values, compounds were serially diluted with 2% (v/v) DMSO in the final reaction, pre-incubating each dilution of each compound with 40 μL of assay buffer containing KAT-6A enzyme (12.5 nM final concentration). 10 μL of assay buffer containing 1 μM peptide substrate and 1 μM acetyl coenzyme A (final concentrations) was added. Reactions (50 μL total) were then carried out at 25° C. for 90 minutes. Reactions were terminated by the addition of 0.5% formic acid (final concentration), and a sample of each reaction was analyzed by SAMDI Tech, Inc. (Chicago, Ill.) using self-assembled monolayer desorption/ionization time-of-flight mass spectrometry (Mrksich, M. (2008) Mass spectrometry of self-assembled monolayers: a new tool for molecular surface science. ACS Nano 2, 7-18).
[2] = biological target: Histone acetyltransferase KAT7 (Homo sapiens, UniProt O95251); assay: KAT-7 Enzyme Assay: Enzyme assay buffer was 50 mM Tris pH 8.0, 0.002% Tween20, 0.005% bovine skin gelatin, and 1 mM dithiothreitol (DTT). For determination of IC50values, compounds were serially diluted with 2% (v/v) DMSO in the final reaction, pre-incubating each dilution of each compound with 40 μL of assay buffer containing KAT-7 enzyme (6 nM final concentration). 10 μL of assay buffer containing 1 μM peptide substrate and 2 μM acetyl coenzyme A (final concentrations) was added. Reactions (50 μL total) were then carried out at 25° C. for 120 minutes. Reactions were terminated by the addition of 0.5% formic acid (final concentration), and a sample of each reaction was analyzed by SAMDI Tech, Inc. (Chicago, Ill.) using self-assembled monolayer desorption/ionization time-of-flight mass spectrometry (Mrksich, M. (2008) Mass spectrometry of self-assembled monolayers: a new tool for molecular surface science. ACS Nano 2, 7-18).
[3] = biological target: T1, Histone acetyltransferase KAT8 (Homo sapiens, UniProt Q9H7Z6); assay: KAT-8 Enzyme Assay: Enzyme assay buffer was 50 mM Tris pH 8.0, 0.002% Tween20, 0.005% bovine skin gelatin, and 1 mM dithiothreitol (DTT). For determination of IC50values, compounds were serially diluted with 2% (v/v) DMSO in the final reaction, pre-incubating each dilution of each compound with 40 μL of assay buffer containing KAT-8 enzyme (12.5 nM final concentration). 10 μL of assay buffer containing 1 μM peptide substrate and 5 μM acetyl coenzyme A (final concentrations) was added. Reactions (50 μL total) were then carried out at 25° C. for 90 minutes. Reactions were terminated by the addition of 0.5% formic acid (final concentration), and a sample of each reaction was analyzed by SAMDI Tech, Inc. (Chicago, Ill.) using self-assembled monolayer desorption/ionization time-of-flight mass spectrometry (Mrksich, M. (2008) Mass spectrometry of self-assembled monolayers: a new tool for molecular surface science. ACS Nano 2, 7-18).
T1 sequence (Q9H7Z6 whole entry): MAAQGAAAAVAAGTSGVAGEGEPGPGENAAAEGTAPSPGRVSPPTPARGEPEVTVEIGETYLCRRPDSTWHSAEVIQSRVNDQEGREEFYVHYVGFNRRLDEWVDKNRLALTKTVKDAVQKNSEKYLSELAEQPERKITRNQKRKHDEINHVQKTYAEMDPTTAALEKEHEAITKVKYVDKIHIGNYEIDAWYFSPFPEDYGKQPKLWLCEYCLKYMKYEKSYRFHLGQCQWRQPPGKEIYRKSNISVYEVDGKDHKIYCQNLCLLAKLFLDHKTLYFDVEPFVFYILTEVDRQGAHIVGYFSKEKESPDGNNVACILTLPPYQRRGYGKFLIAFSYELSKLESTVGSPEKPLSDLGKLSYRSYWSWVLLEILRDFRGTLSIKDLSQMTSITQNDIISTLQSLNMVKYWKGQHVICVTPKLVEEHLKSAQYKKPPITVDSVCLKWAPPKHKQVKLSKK

[4] = biological target: Histone acetyltransferase KAT5 (Homo sapiens, UniProt Q92993); assay: KAT-5 Enzyme Assay: Enzyme assay buffer was 50 mM Tris pH 8.0, 0.002% Tween20, 0.005% bovine skin gelatin, and 1 mM dithiothreitol (DTT). For determination of IC50values, compounds were serially diluted with 2% (v/v) DMSO in the final reaction, pre-incubating each dilution of each compound with 40 μL of assay buffer containing KAT-5 enzyme (9 nM final concentration). 10 μL of assay buffer containing 1 μM peptide substrate and 0.5 μM acetyl coenzyme A (final concentrations) was added. Reactions (50 μL total) were then carried out at 25° C. for 90 minutes. Reactions were terminated by the addition of 0.5% formic acid (final concentration), and a sample of each reaction was analyzed by SAMDI Tech, Inc. (Chicago, Ill.) using self-assembled monolayer desorption/ionization time-of-flight mass spectrometry (Mrksich, M. (2008) Mass spectrometry of self-assembled monolayers: a new tool for molecular surface science. ACS Nano 2, 7-18).
Sequence of Histone acetyltransferase KAT5 (Q92993 whole entry): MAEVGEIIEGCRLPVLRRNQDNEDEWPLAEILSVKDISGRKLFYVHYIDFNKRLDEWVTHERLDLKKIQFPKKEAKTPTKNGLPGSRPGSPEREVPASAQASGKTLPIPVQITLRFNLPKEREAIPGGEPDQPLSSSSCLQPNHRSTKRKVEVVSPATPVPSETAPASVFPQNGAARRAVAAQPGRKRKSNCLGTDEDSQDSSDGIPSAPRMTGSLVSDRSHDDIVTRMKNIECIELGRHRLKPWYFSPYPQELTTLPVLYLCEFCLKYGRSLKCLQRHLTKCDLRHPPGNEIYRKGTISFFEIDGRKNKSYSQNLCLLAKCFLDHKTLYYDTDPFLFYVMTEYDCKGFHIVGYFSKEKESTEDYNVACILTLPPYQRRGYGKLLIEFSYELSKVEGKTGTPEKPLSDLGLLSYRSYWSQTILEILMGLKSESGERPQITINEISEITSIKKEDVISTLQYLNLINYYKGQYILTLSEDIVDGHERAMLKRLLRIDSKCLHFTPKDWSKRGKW

Sequence of Histone acetyltransferase KAT6A (Q92794 whole entry): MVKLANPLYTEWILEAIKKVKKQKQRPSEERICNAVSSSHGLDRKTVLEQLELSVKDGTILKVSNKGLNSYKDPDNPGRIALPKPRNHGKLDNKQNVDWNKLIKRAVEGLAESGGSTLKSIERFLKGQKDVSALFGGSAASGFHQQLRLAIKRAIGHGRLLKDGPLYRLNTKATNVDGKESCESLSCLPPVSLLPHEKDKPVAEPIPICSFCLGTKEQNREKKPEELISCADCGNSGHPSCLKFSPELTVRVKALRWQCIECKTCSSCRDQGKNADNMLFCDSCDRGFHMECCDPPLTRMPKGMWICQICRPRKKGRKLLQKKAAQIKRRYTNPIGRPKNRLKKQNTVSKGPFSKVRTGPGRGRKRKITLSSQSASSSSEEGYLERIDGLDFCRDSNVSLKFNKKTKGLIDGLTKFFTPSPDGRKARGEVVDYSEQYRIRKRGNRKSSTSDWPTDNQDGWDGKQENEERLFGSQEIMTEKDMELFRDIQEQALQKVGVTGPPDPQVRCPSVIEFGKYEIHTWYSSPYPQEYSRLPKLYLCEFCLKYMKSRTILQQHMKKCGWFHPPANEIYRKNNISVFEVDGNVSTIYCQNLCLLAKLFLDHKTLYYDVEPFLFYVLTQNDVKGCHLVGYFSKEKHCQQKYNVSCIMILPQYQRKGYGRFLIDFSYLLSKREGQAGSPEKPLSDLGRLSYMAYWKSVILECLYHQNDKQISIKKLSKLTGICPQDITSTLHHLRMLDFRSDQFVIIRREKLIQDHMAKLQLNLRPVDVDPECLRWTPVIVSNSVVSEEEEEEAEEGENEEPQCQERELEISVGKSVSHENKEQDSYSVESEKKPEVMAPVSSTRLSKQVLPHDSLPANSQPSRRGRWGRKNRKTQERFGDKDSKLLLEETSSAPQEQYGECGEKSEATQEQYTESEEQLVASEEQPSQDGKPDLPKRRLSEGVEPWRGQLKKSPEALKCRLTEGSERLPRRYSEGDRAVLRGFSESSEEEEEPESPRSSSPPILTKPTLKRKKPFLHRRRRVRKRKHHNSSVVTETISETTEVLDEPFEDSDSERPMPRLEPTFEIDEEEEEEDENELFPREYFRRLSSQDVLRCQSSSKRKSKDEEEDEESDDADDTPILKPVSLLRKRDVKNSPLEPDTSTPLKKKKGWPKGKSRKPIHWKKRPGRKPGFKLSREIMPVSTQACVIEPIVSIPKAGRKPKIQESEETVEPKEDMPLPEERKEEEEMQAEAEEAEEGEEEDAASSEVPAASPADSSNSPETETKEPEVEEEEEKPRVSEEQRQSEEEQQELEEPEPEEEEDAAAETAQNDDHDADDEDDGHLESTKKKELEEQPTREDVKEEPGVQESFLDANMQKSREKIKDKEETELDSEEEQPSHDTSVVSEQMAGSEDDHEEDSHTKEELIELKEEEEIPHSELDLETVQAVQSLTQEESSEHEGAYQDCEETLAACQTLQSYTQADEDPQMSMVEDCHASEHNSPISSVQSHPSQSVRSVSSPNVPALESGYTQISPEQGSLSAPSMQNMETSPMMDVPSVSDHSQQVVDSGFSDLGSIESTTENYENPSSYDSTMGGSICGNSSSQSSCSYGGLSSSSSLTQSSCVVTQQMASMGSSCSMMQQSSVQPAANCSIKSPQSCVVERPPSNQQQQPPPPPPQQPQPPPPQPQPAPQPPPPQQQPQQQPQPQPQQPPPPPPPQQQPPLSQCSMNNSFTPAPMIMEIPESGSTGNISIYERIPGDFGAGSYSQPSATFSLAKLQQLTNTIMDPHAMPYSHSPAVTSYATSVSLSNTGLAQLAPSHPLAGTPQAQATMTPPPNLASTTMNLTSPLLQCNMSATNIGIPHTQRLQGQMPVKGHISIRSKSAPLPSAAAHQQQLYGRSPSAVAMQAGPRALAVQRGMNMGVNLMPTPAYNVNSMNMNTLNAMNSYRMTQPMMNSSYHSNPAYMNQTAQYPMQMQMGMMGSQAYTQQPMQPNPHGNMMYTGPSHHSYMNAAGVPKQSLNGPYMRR
Sequence of Histone acetyltransferase KAT7 (O95251 whole entry): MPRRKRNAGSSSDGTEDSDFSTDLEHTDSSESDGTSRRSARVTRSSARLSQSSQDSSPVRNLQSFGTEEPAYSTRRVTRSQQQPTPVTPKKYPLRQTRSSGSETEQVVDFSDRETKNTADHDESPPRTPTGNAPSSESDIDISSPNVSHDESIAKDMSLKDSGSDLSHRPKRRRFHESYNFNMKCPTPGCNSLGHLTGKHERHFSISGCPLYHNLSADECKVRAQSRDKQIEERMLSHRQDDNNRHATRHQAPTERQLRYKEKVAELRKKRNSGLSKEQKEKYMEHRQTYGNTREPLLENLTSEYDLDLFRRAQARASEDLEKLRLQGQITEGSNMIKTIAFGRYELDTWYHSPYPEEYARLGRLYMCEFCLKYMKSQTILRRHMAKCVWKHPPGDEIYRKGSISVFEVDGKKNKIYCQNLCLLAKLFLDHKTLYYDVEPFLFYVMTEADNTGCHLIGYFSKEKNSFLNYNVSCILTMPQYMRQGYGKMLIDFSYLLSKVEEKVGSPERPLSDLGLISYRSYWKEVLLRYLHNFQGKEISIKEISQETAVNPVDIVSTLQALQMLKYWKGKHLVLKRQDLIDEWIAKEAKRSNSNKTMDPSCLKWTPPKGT

SMILES | IC50 [1] | IC50 [2] | IC50 [3] | IC50 [4]
COc1ccc(S(=O)(=O)NNC(=O)c2cc(-c3cn(C)cn3)cc(Cl)c2F)c(F)c1 | < 10 µM | < 10 µM | in the range around 30 µM | < 10 µM
COc1ccc(S(=O)(=O)NNC(=O)c2cc(-c3cn(C)cn3)cc(Cl)c2F)cc1 | < 10 µM | < 10 µM | in the range around 30 µM | < 10 µM
CNc1cccc(S(=O)(=O)NNC(=O)c2cc(-c3cn(C)cn3)cc(Cl)c2F)c1 | < 10 µM | < 10 µM | in the range around 30 µM | < 10 µM
Cn1cnc(-c2cc(Cl)c(F)c(C(=O)NNS(=O)(=O)c3ccccc3F)c2)c1 | < 10 µM | < 10 µM | in the range around 30 µM | < 10 µM
COc1ccc(S(=O)(=O)NNC(=O)c2cc(-c3cn(C)cn3)cc(Cl)c2F)nc1 | < 10 µM | < 10 µM | in the range around 30 µM | < 10 µM
